One experiment has as its system IL-1. Nature of the experiment: Addition of IL-1 receptor antagonist before FBG stimulation. The format is cell-based. To be noted: 10 μg/ml IL1 receptor antagonist, data not shown. Here is the method: (§1) Where stated, cells were pre-incubated with 10 μg/ml anti-CD14 antibody, 10 μg/ml IL1 receptor antagonist, 10 μg/ml anti-TLR2 antibody, 25 μg/ml anti-TLR4 antibody, 10 or 25 μg/ml isotype control antibody, 25 μg/ml polymyxin B, or 1 μg/ml msbB LPS, for 30 minutes at 37° C. before stimulation. Where stated, recombinant tenascin-C and FBG, and LPS were boiled for 15 minutes before addition to cells
(§2) Supernatants were subsequently examined for the presence of the cytokines TNF-α, IL-6, and IL-8 by enzyme-linked immunosorbent assay (ELISA) according to the manufacturer's instructions. Absorbance was read on a spectrophotometric ELISA plate reader (Labsystems Multiscan Biochromic, Vantaa, Finland) and analyzed using the Ascent software program (Thermo Labsystems, Altrincham, UK).

For experiment [1], the system named is primary human macrophages. Nature of the experiment: Cytokine synthesis in primary human macrophages stimulated with tenascin-C or its domains. The experiment is classed as cell-based. The protocol:
Human monocytes were isolated from peripheral blood (London Blood Bank) and macrophages were derived from monocytes after differentiation for 4 days with 100 ng/ml of M-CSF as previously described (Foxwell (1998)).
(§3) Immediately after isolation, RA membrane cells and macrophages were cultured at 1×10^5 cells/well in RPMI 1640 containing 10% (v/v) FBS and 100 U/ml (Units/ml) penicillin/streptomycin in 96-well tissue culture plates for 24 hours before stimulation. Synovial fibroblasts (used only at either passage number 2 or 3) were cultured at 1×10^4 cells/well in DMEM containing 10% (v/v) FBS and 100 U/ml penicillin/streptomycin in 96-well tissue culture plates for 24 hours before stimulation.
(§4) Cells were incubated for 24 hours at 37° C. with the indicated doses of tenascin-C and recombinant tenascin-C fragments (1.0 μM-1.0 nM). Cells were also stimulated where indicated with LPS (1 ng/ml for human macrophages, 10 ng/ml for human fibroblasts, RA membrane cells and HEKs, 100 ng/ml for MEFS and BMDMs and 10 ng/ml for HEKS), PAM3 (10 ng/ml for human macrophages, human fibroblasts, and HEKs, 100 ng/ml for MEFs and BMDMs), murine IL-1 (5 ng/ml for MEFS) and murine TNF-α (100 ng/ml for MEFS). Unless specifically stated otherwise rough LPS was used for in vitro studies.
as §1, §2

Another experiment concerns RA synovial fibroblasts. Nature of the experiment: Cytokine synthesis in RA synovial fibroblasts stimulated with tenascin-C, FBG or LPS. The experiment is classed as cell-based, human.
Source text: RA membrane cells (representing a mixed population of all synovial cell types) were isolated from synovial membranes obtained from patients undergoing joint replacement surgery as previously described (Brennan (1989)). RA synovial fibroblasts were isolated from the mixed population of RA membrane cells as previously described (Brennan (1989)). The study was approved by the local Trust ethics committee (Riverside NHS Research Committee), and waste tissue (synovium after joint replacement surgery) was obtained only after receiving signed informed consent from the patient and anonymyzing the tissue to protect patient identity.
as §3, §4, §2

For a further experiment, the system named is serum from RA patients. Nature of the experiment: Western blot of citrullinated tenascin-C probed with serum from RA patients or healthy controls. The format is binding, human. As to conditions: sera from RA patients or normal healthy controls, not shown. The protocol:
SDS PAGE of Citrullinated Proteins 33.33 ul of citrullination reaction (cit-TNC alone or cit-TNC combined with cit-FBG) was loaded into NuPAGE® Novex 4-12% Bis-tris gel using a 1.0 mm 2D single lane well.
After electrophoresis proteins were transferred to nitrocellulose and the membrane blocked and then cut into strips (up to 8 strips ˜0.7 cm wide). Strips were incubated with serum from RA patients or normal healthy individuals diluted 1:100 in 5% milk TBS-tween. Strips were incubated in 15 ml falcon tubes on rollers 1 h room temperature, then washed 3 ×5 min, 1×15 min in tubes with TBS-Tween. Strips were then incubated with secondary mouse anti-human Ig 1:5000 1 h in room temperature, then washed 3×5 min, 1×15 min in the dish with TBS-tween. Strips were finally incubated with ECL reagents and exposed to film.
In general terms: In western blotting, separated proteins are transferred to a membrane and probed.

For “IL-1 receptor antagonist: IL-1 receptor antagonist from R&D Systems”, the “FBG induction of cytokines” value with IL-1 was “did not inhibit”.

For “tenascin-C: recombinant full-length human tenascin-C purified from HEK293 conditioned medium”, the “heat and polymyxin B sensitivity of cytokine stimulation” value in experiment [1] (boiled 15 min, 25 μg/ml polymyxin B pre-incubation) is “heat sensitive and unaffected by the LPS inhibitor, polymyxin B”. In addition, in experiment [1] (human macrophages, 24 h, 1.0 μM-1.0 nM), the “production of TNF-α, IL-6 and IL-8” value is recorded as “dose dependently stimulated”. Moreover, in the experiment with RA synovial fibroblasts (RA synovial fibroblasts, 24 h), the IL-6 synthesis entry is reported as “only induced IL-6 synthesis”. The TNF-α synthesis result with RA synovial fibroblasts (fibroblasts, data not shown) is on record as “Neither LPS nor tenascin-C induced TNF-α synthesis”. For the same substance, in the experiment with serum from RA patients, the “reactivity with sera in blots” value was “No reactivity”.
